The source made the active and inactive calls. The calls are words filed in the database; no cut-off is given here.
Experiments:
Rattus norvegicus [1] = assay: Anticonvulsant activity in Sprague-Dawley rat assessed as protection against maximal electroshock-induced seizures at 30 mg/kg, po measured after 2 hrs; assay type: functional, organism-based; parameters: dose 30 mg/kg
Mus musculus [2] = assay: Anticonvulsant activity in albino CF1 mouse assessed as protection against subcutaneous metrazol-induced seizures at 100 mg/kg, ip measured after 1 hr; assay type: functional, organism-based; parameters: dose 100 mg/kg
Rattus norvegicus [3] = assay: Neurotoxicity in MES Sprague-Dawley rat model at 30 mg/kg, po measured after 4 hrs; assay type: toxicity, organism-based; parameters: dose 30 mg/kg, route oral; conditions: in vivo
Mus musculus [4] = assay: Anticonvulsant activity in albino CF1 mouse assessed as protection against maximal electroshock-induced seizures at 100 mg/kg, ip measured after 0.5 hr; assay type: functional, organism-based; parameters: dose 100 mg/kg
Rattus norvegicus [5] = assay: Neurotoxicity in MES Sprague-Dawley rat model at 30 mg/kg, ip measured after 0.25 hr; assay type: toxicity, organism-based; parameters: dose 30 mg/kg, route intraperitoneal; conditions: in vivo
Mus musculus [6] = assay: Neurotoxicity in albino CF1 mouse at 100 mg/kg, ip measured after 4 hrs; assay type: toxicity, organism-based; parameters: dose 100 mg/kg, route intraperitoneal; conditions: in vivo
Rattus norvegicus [7] = assay: Neurotoxicity in MES Sprague-Dawley rat model at 30 mg/kg, po measured after 0.5 hr; assay type: toxicity, organism-based; parameters: dose 30 mg/kg, route oral; conditions: in vivo
Rattus norvegicus [8] = assay: Neurotoxicity in MES Sprague-Dawley rat model at 30 mg/kg, ip measured after 1 hr; assay type: toxicity, organism-based; parameters: dose 30 mg/kg, route intraperitoneal; conditions: in vivo
Rattus norvegicus [9] = assay: Anticonvulsant activity in Sprague-Dawley rat assessed as protection against maximal electroshock-induced seizures at 30 mg/kg, ip measured after 0.25 hr; assay type: functional, organism-based; parameters: dose 30 mg/kg
Mus musculus [10] = assay: Anticonvulsant activity in albino CF1 mouse assessed as protection against maximal electroshock-induced seizures at 100 mg/kg, ip measured after 0.25 hr; assay type: functional, organism-based; parameters: dose 100 mg/kg
Rattus norvegicus [11] = assay: Anticonvulsant activity in Sprague-Dawley rat assessed as protection against maximal electroshock-induced seizures at 30 mg/kg, po measured after 4 hrs; assay type: functional, organism-based; parameters: dose 30 mg/kg
Rattus norvegicus [12] = assay: Neurotoxicity in MES Sprague-Dawley rat model at 30 mg/kg, ip measured after 4 hrs; assay type: toxicity, organism-based; parameters: dose 30 mg/kg, route intraperitoneal; conditions: in vivo
Rattus norvegicus [13] = assay: Anticonvulsant activity in Sprague-Dawley rat assessed as protection against maximal electroshock-induced seizures at 30 mg/kg, ip measured after 1 hr; assay type: functional, organism-based; parameters: dose 30 mg/kg
Rattus norvegicus [14] = assay: Neurotoxicity in MES Sprague-Dawley rat model at 30 mg/kg, ip measured after 0.5 hr; assay type: toxicity, organism-based; parameters: dose 30 mg/kg, route intraperitoneal; conditions: in vivo
Mus musculus [15] = assay: Anticonvulsant activity in albino CF1 mouse assessed as protection against subcutaneous metrazol-induced seizures at 100 mg/kg, ip measured after 4 hrs; assay type: functional, organism-based; parameters: dose 100 mg/kg
Rattus norvegicus [16] = assay: Anticonvulsant activity in Sprague-Dawley rat assessed as protection against maximal electroshock-induced seizures at 30 mg/kg, ip measured after 2 hrs; assay type: functional, organism-based; parameters: dose 30 mg/kg
Mus musculus [17] = assay: Anticonvulsant activity in albino CF1 mouse assessed as protection against 32 mA current-induced seizures at 100 mg/kg, ip measured after 0.25 hr; assay type: functional, organism-based; parameters: dose 100 mg/kg
Rattus norvegicus [18] = assay: Neurotoxicity in MES Sprague-Dawley rat model at 30 mg/kg, po measured after 1 hr; assay type: toxicity, organism-based; parameters: dose 30 mg/kg, route oral; conditions: in vivo
Mus musculus [19] = assay: Neurotoxicity in 32 mA current-induced seizure albino CF1 mouse model at 100 mg/kg, ip measured after 4 hrs; assay type: toxicity, organism-based; parameters: dose 100 mg/kg, route intraperitoneal; conditions: in vivo
Mus musculus [20] = assay: Anticonvulsant activity in albino CF1 mouse assessed as protection against subcutaneous metrazol-induced seizures at 100 mg/kg, ip measured after 0.5 hr; assay type: functional, organism-based; parameters: dose 100 mg/kg
Rattus norvegicus [21] = assay: Anticonvulsant activity in Sprague-Dawley rat assessed as protection against maximal electroshock-induced seizures at 30 mg/kg, ip measured after 0.5 hr; assay type: functional, organism-based; parameters: dose 30 mg/kg
Rattus norvegicus [22] = assay: Neurotoxicity in MES Sprague-Dawley rat model at 30 mg/kg, ip measured after 2 hrs; assay type: toxicity, organism-based; parameters: dose 30 mg/kg, route intraperitoneal; conditions: in vivo
Mus musculus [23] = assay: Anticonvulsant activity in albino CF1 mouse assessed as protection against maximal electroshock-induced seizures at 100 mg/kg, ip measured after 1 hr; assay type: functional, organism-based; parameters: dose 100 mg/kg
Rattus norvegicus [24] = assay: Anticonvulsant activity in Sprague-Dawley rat assessed as protection against maximal electroshock-induced seizures at 30 mg/kg, ip measured after 4 hrs; assay type: functional, organism-based; parameters: dose 30 mg/kg
Mus musculus [25] = assay: Neurotoxicity in 32 mA current-induced seizure albino CF1 mouse model at 100 mg/kg, ip measured after 1 hr; assay type: toxicity, organism-based; parameters: dose 100 mg/kg, route intraperitoneal; conditions: in vivo
Mus musculus [26] = assay: Neurotoxicity in 32 mA current-induced seizure albino CF1 mouse model at 100 mg/kg, ip measured after 0.25 hr; assay type: toxicity, organism-based; parameters: dose 100 mg/kg, route intraperitoneal; conditions: in vivo
Mus musculus [27] = assay: Neurotoxicity in 32 mA current-induced seizure albino CF1 mouse model at 100 mg/kg, ip measured after 2 hrs; assay type: toxicity, organism-based; parameters: dose 100 mg/kg, route intraperitoneal; conditions: in vivo
Mus musculus [28] = assay: Anticonvulsant activity in albino CF1 mouse assessed as protection against 32 mA current-induced seizures at 100 mg/kg, ip measured after 4 hrs; assay type: functional, organism-based; parameters: dose 100 mg/kg
Mus musculus [29] = assay: Anticonvulsant activity in albino CF1 mouse assessed as protection against 32 mA current-induced seizures at 100 mg/kg, ip measured after 2 hrs; assay type: functional, organism-based; parameters: dose 100 mg/kg
Mus musculus [30] = assay: Anticonvulsant activity in albino CF1 mouse assessed as protection against 32 mA current-induced seizures at 100 mg/kg, ip measured after 0.5 hr; assay type: functional, organism-based; parameters: dose 100 mg/kg
Mus musculus [31] = assay: Anticonvulsant activity in albino CF1 mouse assessed as protection against subcutaneous metrazol-induced seizures at 100 mg/kg, ip measured after 0.25 hr; assay type: functional, organism-based; parameters: dose 100 mg/kg
Mus musculus [32] = assay: Anticonvulsant activity in albino CF1 mouse assessed as protection against maximal electroshock-induced seizures at 100 mg/kg, ip measured after 4 hrs; assay type: functional, organism-based; parameters: dose 100 mg/kg
Mus musculus [33] = assay: Neurotoxicity in albino CF1 mouse at 100 mg/kg, ip measured after 0.25 hr; assay type: toxicity, organism-based; parameters: dose 100 mg/kg, route intraperitoneal; conditions: in vivo
Rattus norvegicus [34] = assay: Anticonvulsant activity in Sprague-Dawley rat assessed as protection against maximal electroshock-induced seizures at 30 mg/kg, po measured after 0.25 hr; assay type: functional, organism-based; parameters: dose 30 mg/kg
Mus musculus [35] = assay: Neurotoxicity in albino CF1 mouse at 100 mg/kg, ip measured after 0.5 hr; assay type: toxicity, organism-based; parameters: dose 100 mg/kg, route intraperitoneal; conditions: in vivo
Rattus norvegicus [36] = assay: Anticonvulsant activity in Sprague-Dawley rat assessed as protection against maximal electroshock-induced seizures at 30 mg/kg, po measured after 0.5 hr; assay type: functional, organism-based; parameters: dose 30 mg/kg
Rattus norvegicus [37] = assay: Neurotoxicity in MES Sprague-Dawley rat model at 30 mg/kg, po measured after 2 hrs; assay type: toxicity, organism-based; parameters: dose 30 mg/kg, route oral; conditions: in vivo
Mus musculus [38] = assay: Neurotoxicity in albino CF1 mouse at 100 mg/kg, ip measured after 1 hr; assay type: toxicity, organism-based; parameters: dose 100 mg/kg, route intraperitoneal; conditions: in vivo
Rattus norvegicus [39] = assay: Anticonvulsant activity in Sprague-Dawley rat assessed as protection against maximal electroshock-induced seizures at 30 mg/kg, po measured after 1 hr; assay type: functional, organism-based; parameters: dose 30 mg/kg
Rattus norvegicus [40] = assay: Neurotoxicity in MES Sprague-Dawley rat model at 30 mg/kg, po measured after 0.25 hr; assay type: toxicity, organism-based; parameters: dose 30 mg/kg, route oral; conditions: in vivo
Mus musculus [41] = assay: Neurotoxicity in 32 mA current-induced seizure albino CF1 mouse model at 100 mg/kg, ip measured after 0.5 hr; assay type: toxicity, organism-based; parameters: dose 100 mg/kg, route intraperitoneal; conditions: in vivo
Mus musculus [42] = assay: Anticonvulsant activity in albino CF1 mouse assessed as protection against 32 mA current-induced seizures at 100 mg/kg, ip measured after 1 hr; assay type: functional, organism-based; parameters: dose 100 mg/kg
Mus musculus [43] = assay: Anticonvulsant activity in ip dosed albino CF1 mouse assessed as protection against maximal electroshock-induced seizures; assay type: functional
Mus musculus [44] = assay: Anticonvulsant activity in ip dosed albino CF1 mouse assessed as protection against subcutaneous metrazol-induced seizures; assay type: functional
Rattus norvegicus [45] = assay: Anticonvulsant activity in ip dosed hippocampal kindled albino Sprague-Dawley rat seizure model; assay type: functional; conditions: Hippocampus
Mus musculus [46] = assay: Anticonvulsant activity in ip dosed albino CF1 mouse assessed as protection against maximal electroshock-induced seizures measured as time to peak effect; assay type: functional
Rattus norvegicus [47] = assay: Anticonvulsant activity in ip dosed hippocampal kindled albino Sprague-Dawley rat seizure model assessed as time of rest; assay type: functional, Hippocampus
[48] = Neurotoxicity in ip dosed albino CF1 mouse; assay type: toxicity, organism-based; conditions: in vivo

O=C1NC(=O)[C@@H](c2cccc(C(F)(F)F)c2)N2CCCC[C@H]12
Activity (Rattus norvegicus [1]): inactive
Activity (Mus musculus [2]): inactive
Activity (Rattus norvegicus [3]): Non-toxic
Activity (Mus musculus [4]): inactive
Activity (Rattus norvegicus [5]): Non-toxic
Activity (Mus musculus [6]): Non-toxic
Activity (Rattus norvegicus [7]): Non-toxic
Activity (Rattus norvegicus [8]): Non-toxic
Activity (Rattus norvegicus [9]): inactive
Activity (Mus musculus [10]): inactive
Activity (Rattus norvegicus [11]): inactive
Activity (Rattus norvegicus [12]): Non-toxic
Activity (Rattus norvegicus [13]): inactive
Activity (Rattus norvegicus [14]): Non-toxic
Activity (Mus musculus [15]): inactive
Activity (Rattus norvegicus [16]): inactive
Activity (Mus musculus [17]): Active
Activity (Rattus norvegicus [18]): Non-toxic
Activity (Mus musculus [19]): Non-toxic
Activity (Mus musculus [20]): inactive
Activity (Rattus norvegicus [21]): inactive
Activity (Rattus norvegicus [22]): Non-toxic
Activity (Mus musculus [23]): Active
Activity (Rattus norvegicus [24]): inactive
Activity (Mus musculus [25]): Non-toxic
Activity (Mus musculus [26]): Non-toxic
Activity (Mus musculus [27]): Non-toxic
Activity (Mus musculus [28]): inactive
Activity (Mus musculus [29]): inactive
Activity (Mus musculus [30]): Active
Activity (Mus musculus [31]): inactive
Activity (Mus musculus [32]): inactive
Activity (Mus musculus [33]): Non-toxic
Activity (Rattus norvegicus [34]): inactive
Activity (Mus musculus [35]): Non-toxic
Activity (Rattus norvegicus [36]): inactive
Activity (Rattus norvegicus [37]): Non-toxic
Activity (Mus musculus [38]): Non-toxic
Activity (Rattus norvegicus [39]): inactive
Activity (Rattus norvegicus [40]): Non-toxic
Activity (Mus musculus [41]): Non-toxic
Activity (Mus musculus [42]): Active

COC[C@@H](NC(C)=O)C(=O)NCc1ccccc1 [LACOSAMIDE]
ED50 (Mus musculus [43]): 18 µmol/kg
ED50 (Mus musculus [44]): > 100 µmol/kg
ED50 (Rattus norvegicus [45]): 56 µmol/kg
Time (Mus musculus [46]): 0.5 h
Time (Rattus norvegicus [47]): 0.25 h
TD50 [48]: 107 µmol/kg

CCC1(c2ccccc2)C(=O)NC(=O)NC1=O [PHENOBARBITAL]
ED50 (Mus musculus [43]): 94 µmol/kg
ED50 (Mus musculus [44]): 57 µmol/kg
Time (Mus musculus [46]): 1 h
TD50 [48]: 297 µmol/kg

— ChEMBL document CHEMBL3352057, “Novel fluorinated pyrrolo[1,2-a]pyrazine-2,6-dione derivatives: synthesis and anticonvulsant evaluation in animal models of epilepsy” (Bioorg Med Chem, 2014)
